The text below walks through data of patent US8871756B2 (Hoffmann-La Roche Inc., priority 2011, dated 2014).

Assay [1] deals with RSV. The note with it: Phase III clinical trials; cited from earlier work.
Assay [2] deals with RSV infection. The note with it: selected infants; intramuscularly at 15 mg/kg once a month for the duration of RSV season; cited from earlier work.
In assay [3] the test system is established RSV infection. The note with it: in vivo; cited from earlier work.
The test system of assay [4] is RSV Long strain. Briefly: Viral cytopathic effect (CPE) assay, anti-RSV activity. It counts as cell-based, Respiratory Syncytial Virus. The settings on record: human respiratory syncytial virus, 144 h, RSV Long strain (ATCC); cell viability after 6 days, Cell Counting kit-8. An outline of the steps:
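EC50 was derived from CCK-8 viability at 450/630 nm measured 6 days post-infection. Infection used enough RSV Long strain for approximately 80–90% cytopathic effect, in the presence of half-log serially diluted compound. Cells were plated the day before at 6×10^3 per well in DMEM/10% FBS.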
For orientation: Cytopathic effects are the visible damage that an infection or toxin causes in cultured cells.

For motavizumab, in assay [1], the benefit over palivizumab result is “failed to show additional benefit over palivizumab”.

Regarding palivizumab, the “reduction of hospitalization rate caused by RSV infection” value in assay [2] is 45-55%. For the same compound, the “efficacy in the treatment of established RSV infection” value in assay [3] is reported as “not effective”.

One may read the EC50 as the concentration giving half of the maximal effect. The low end stands for an effect from little substance, the high end for a need for much substance. `Cc1ccc2nc(N3CCS(=O)(=O)c4ccccc4C3)cc(NCC3(C)CN=C(N)O3)c2c1` (centres unmarked) [Example 38-2, N-[(2-Amino-5-methyl-4,5-dihydro-1,3-oxazol-5-yl)methyl]-2-(1,1-dioxido-2,3-dihydro-1,4-benzothiazepin-4(5H)-yl)-6-methylquinolin-4-amine] returned an EC50 in assay [4] of 0.302 µM.

For the compound `Cc1ccc2nc(N3CCS(=O)(=O)c4ccccc4C3)cc(NCCN3CCS(=O)(=O)CC3)c2c1` [Example 5-1, 2-(1,1-Dioxido-2,3-dihydro-1,4-benzothiazepin-4(5H)-yl)-N-[2-(1,1-dioxidothiomorpholin-4-yl)ethyl]-6-methylquinolin-4-amine], it took 9.2 µM to reach a half-maximal effect in assay [4] (EC50).

In the case of `NC1(CNc2cc(N3CCS(=O)(=O)c4ccccc4C3)nc3ccncc23)COC1` [Example 2-10, N-[(3-Aminooxetan-3-yl)methyl]-2-(1,1-dioxido-2,3-dihydro-1,4-benzothiazepin-4(5H)-yl)-1,6-naphthyridin-4-amine], in assay [4], it took 0.005 µM to reach a half-maximal effect (EC50).

`O=S1(=O)CCN(c2nc(NCC(O)CO)c3cc(Cl)ccc3n2)Cc2ccccc21` (centres unmarked) [Example 87-2] showed an EC50 in assay [4] of 9.31 µM.

The compound `Cc1ccc2nc(N3CC[S+]([O-])c4ccccc4C3)nc(NCCN)c2c1` (centres unmarked) [Example 89, N-[6-Methyl-2-(1-oxido-2,3-dihydro-1,4-benzothiazepin-4(5H)-yl)quinazolin-4-yl]ethane-1,2-diamine] had an EC50 in assay [4] of 0.007 µM.

In assay [4], `Cc1ccc2nc(N3CCS(=O)(=O)c4ccccc4C3)cc(NC3CCCNC3)c2c1` (centres unmarked) [Example 3-40, 2-(1,1-Dioxido-2,3-dihydro-1,4-benzothiazepin-4(5H)-yl)-6-methyl-N-(piperidin-3-yl)quinolin-4-amine] returned an EC50 of 0.022 µM.

Regarding `NCCNc1cc(N2CCSc3ccccc3C2)nc2ccc(Cl)cc12` [Example 4-2, N-[6-Chloro-2-(2,3-dihydro-1,4-benzothiazepin-4(5H)-yl)quinolin-4-yl]ethane-1,2-diamine], in assay [4], a half-maximal response (EC50) required 0.098 µM.

The compound `Cc1ccc2nc(N3CCS(=O)(=O)c4ccccc4C3)cc(N3CCC(C)(N)C3)c2c1` (centres unmarked) [Example 64, 1-[2-(1,1-Dioxido-2,3-dihydro-1,4-benzothiazepin-4(5H)-yl)-6-methylquinolin-4-yl]-3-methylpyrrolidin-3-amine] had a concentration for a half-maximal effect (EC50) in assay [4] of 0.035 µM.
